# Laboratory results published in the kinase profiling compilation of Christmann-Franck et al. (2016).
# Key:
# Assay in all cases: KINOMEscan competition binding
# Details in all cases: compound 10.0 µM
# DSTYK (human) = DSTYK (human) (UniProt Q6XUX3)
# STK24 (human) = STK24 (human) (UniProt Q9Y6E0)
# MAP3K3 (human) = MAP3K3 (human) (UniProt Q99759)
# ITK (human) = ITK (human) (UniProt Q08881)
# CDK4 CCND3 (human) = CDK4 CCND3 (human) (UniProt P11802+P30281)
# ACVRL1 (human) = ACVRL1 (human) (UniProt P37023)
# [1] = biological target: JAK2 JH1 catalytic (human) (UniProt O60674)
# MAP3K9 (human) = MAP3K9 (human) (UniProt P80192)
# SIK2 (human) = SIK2 (human) (UniProt Q9H0K1)
# Sequence of SIK2 (human) (Q9H0K1 whole entry, looked up): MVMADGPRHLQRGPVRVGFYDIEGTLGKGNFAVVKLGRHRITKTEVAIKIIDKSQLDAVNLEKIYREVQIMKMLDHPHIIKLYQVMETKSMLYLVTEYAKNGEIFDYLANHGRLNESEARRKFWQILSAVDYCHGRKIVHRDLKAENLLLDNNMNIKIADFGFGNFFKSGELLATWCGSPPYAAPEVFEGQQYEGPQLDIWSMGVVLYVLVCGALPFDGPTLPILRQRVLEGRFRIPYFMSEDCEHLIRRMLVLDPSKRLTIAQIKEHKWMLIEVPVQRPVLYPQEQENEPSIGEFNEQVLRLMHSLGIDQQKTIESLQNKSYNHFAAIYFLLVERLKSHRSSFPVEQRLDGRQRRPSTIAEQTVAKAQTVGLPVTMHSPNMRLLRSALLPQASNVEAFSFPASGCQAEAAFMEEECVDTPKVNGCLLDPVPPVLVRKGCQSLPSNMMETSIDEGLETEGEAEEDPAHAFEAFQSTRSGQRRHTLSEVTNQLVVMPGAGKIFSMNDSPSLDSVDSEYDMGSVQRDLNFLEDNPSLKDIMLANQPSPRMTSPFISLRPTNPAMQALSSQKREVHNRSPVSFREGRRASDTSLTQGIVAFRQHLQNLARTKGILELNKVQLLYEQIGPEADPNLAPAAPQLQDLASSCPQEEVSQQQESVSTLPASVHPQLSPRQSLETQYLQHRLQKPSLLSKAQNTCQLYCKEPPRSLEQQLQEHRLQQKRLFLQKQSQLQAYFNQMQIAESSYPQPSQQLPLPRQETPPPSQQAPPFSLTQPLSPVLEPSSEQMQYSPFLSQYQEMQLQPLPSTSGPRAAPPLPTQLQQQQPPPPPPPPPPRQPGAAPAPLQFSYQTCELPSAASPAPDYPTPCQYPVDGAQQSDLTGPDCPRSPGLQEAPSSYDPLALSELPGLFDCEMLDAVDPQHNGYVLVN
# PAK7 (human) = PAK7 (human) (UniProt Q9P286)
# CRK2 (P.falciparum) = CRK2 (P.falciparum) (UniProt P61075)
# Sequence of CRK2 (P.falciparum) (P61075 whole entry, looked up): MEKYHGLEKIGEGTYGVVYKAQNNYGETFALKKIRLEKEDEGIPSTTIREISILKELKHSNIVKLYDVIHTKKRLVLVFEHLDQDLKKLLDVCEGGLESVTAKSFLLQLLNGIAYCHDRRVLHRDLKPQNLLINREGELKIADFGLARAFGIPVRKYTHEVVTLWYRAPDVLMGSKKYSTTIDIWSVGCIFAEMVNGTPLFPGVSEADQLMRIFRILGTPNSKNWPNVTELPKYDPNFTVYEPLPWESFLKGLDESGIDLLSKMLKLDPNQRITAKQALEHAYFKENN
# NEK7 (human) = NEK7 (human) (UniProt Q8TDX7)
# MARK2 (human) = MARK2 (human) (UniProt Q7KZI7)
# FRK (human) = FRK (human) (UniProt P42685)
# RIOK2 (human) = RIOK2 (human) (UniProt Q9BVS4)
# CAMKK1 (human) = CAMKK1 (human) (UniProt Q8N5S9)
# Sequence of CAMKK1 (human) (Q8N5S9 whole entry, looked up): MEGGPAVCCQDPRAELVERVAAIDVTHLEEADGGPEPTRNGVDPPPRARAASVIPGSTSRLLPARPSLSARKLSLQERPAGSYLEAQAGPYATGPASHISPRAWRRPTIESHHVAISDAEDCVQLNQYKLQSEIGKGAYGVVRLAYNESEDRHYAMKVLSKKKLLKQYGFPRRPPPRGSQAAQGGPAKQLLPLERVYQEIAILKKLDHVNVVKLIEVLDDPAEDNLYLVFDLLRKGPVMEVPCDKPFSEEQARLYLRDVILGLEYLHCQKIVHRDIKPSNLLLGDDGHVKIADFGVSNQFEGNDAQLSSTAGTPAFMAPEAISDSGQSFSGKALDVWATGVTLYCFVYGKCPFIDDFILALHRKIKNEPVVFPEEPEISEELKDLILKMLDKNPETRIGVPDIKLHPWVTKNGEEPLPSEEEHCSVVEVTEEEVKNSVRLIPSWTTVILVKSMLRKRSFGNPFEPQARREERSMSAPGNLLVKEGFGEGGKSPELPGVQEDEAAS
# EPHB1 (human) = EPHB1 (human) (UniProt P54762)
# MUSK (human) = MUSK (human) (UniProt O15146)
# FGFR4 (human) = FGFR4 (human) (UniProt P22455)
# Sequence of FGFR4 (human) (P22455 whole entry, looked up): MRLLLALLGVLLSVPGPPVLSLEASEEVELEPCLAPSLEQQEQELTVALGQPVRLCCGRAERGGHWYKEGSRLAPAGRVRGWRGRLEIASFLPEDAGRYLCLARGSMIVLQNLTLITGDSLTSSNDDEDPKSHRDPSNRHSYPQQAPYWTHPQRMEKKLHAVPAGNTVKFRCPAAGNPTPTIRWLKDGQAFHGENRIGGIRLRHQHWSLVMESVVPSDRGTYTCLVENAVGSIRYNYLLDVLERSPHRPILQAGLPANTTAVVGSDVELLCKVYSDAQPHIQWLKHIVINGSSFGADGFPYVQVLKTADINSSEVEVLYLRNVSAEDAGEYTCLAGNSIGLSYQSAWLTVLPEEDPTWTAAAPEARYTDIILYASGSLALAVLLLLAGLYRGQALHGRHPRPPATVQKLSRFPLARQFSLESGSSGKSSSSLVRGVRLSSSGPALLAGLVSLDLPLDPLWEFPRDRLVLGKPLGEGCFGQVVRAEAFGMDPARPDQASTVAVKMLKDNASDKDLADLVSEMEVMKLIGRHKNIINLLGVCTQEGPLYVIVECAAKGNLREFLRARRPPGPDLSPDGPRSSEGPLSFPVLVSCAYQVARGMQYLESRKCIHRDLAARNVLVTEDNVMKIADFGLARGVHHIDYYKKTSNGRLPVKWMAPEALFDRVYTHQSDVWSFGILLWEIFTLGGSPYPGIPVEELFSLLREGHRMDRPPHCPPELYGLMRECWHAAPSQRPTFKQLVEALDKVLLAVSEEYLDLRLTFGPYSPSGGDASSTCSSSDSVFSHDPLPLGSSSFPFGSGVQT
# NEK6 (human) = NEK6 (human) (UniProt Q9HC98)
# STK4 (human) = STK4 (human) (UniProt Q13043)
# Sequence of STK4 (human) (Q13043 whole entry, looked up): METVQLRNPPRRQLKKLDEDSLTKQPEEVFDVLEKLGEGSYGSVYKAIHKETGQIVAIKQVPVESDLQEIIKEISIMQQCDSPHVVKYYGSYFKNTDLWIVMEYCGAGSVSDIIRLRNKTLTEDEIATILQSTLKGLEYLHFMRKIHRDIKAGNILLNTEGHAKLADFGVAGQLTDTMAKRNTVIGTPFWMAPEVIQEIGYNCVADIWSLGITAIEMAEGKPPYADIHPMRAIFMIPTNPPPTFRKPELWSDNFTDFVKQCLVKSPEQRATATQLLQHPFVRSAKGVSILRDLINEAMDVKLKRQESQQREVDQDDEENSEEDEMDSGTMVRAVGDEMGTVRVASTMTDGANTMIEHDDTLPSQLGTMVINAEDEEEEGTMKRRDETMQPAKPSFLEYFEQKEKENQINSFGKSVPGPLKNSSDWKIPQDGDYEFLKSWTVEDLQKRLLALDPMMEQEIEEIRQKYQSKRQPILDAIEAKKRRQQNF
# MINK1 (human) = MINK1 (human) (UniProt Q8N4C8)
# ACVR1 (human) = ACVR1 (human) (UniProt Q04771)
# MAPK13 (human) = MAPK13 (human) (UniProt O15264)
# CDK13 (human) = CDK13 (human) (UniProt Q14004)
# NEK5 (human) = NEK5 (human) (UniProt Q6P3R8)
# LTK (human) = LTK (human) (UniProt P29376)
# PIK3C2G (human) = PIK3C2G (human) (UniProt O75747)
# PLK2 (human) = PLK2 (human) (UniProt Q9NYY3)
# Sequence of PLK2 (human) (Q9NYY3 whole entry, looked up): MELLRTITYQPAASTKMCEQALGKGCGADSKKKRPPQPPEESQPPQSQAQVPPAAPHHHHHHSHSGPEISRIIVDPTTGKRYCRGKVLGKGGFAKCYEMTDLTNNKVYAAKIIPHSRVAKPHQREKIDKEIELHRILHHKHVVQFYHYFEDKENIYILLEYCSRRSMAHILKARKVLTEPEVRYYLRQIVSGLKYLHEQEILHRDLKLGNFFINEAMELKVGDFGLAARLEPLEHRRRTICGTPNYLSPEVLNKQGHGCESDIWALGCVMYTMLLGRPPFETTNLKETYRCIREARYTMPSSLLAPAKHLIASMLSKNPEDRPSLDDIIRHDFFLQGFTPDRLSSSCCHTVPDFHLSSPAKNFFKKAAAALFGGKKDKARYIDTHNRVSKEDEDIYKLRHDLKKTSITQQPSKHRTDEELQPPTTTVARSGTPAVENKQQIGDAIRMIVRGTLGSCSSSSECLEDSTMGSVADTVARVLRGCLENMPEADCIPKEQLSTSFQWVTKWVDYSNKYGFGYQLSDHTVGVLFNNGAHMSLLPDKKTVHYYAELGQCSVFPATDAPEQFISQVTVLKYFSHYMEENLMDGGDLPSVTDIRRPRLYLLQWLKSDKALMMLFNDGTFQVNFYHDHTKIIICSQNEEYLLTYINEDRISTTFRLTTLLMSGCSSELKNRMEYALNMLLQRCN
# MAP3K4 (human) = MAP3K4 (human) (UniProt Q9Y6R4)
# CAMKK2 (human) = CAMKK2 (human) (UniProt Q96RR4)
# [2] = biological target: TYK2 JH2 pseudokinase (human) (UniProt P29597)
# STK17A (human) = STK17A (human) (UniProt Q9UEE5)
# MATK (human) = MATK (human) (UniProt P42679)
# Sequence of MATK (human) (P42679 whole entry, looked up): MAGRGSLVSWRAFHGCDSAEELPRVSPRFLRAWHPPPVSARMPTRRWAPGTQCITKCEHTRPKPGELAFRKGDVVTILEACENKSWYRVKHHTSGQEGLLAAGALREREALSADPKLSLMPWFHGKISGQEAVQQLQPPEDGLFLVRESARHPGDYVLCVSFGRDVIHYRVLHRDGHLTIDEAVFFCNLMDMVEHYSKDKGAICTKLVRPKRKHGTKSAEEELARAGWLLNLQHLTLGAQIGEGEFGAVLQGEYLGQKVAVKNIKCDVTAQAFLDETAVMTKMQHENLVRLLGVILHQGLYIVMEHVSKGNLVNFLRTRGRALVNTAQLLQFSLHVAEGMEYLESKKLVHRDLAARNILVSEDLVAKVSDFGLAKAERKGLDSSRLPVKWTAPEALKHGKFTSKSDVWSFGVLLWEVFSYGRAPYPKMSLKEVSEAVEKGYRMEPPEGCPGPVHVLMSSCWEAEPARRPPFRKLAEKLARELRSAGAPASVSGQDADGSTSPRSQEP
# EPHB4 (human) = EPHB4 (human) (UniProt P54760)
# AAK1 (human) = AAK1 (human) (UniProt Q2M2I8)
# ROCK2 (human) = ROCK2 (human) (UniProt O75116)
# AKT1 (human) = AKT1 (human) (UniProt P31749)
# MAP3K1 (human) = MAP3K1 (human) (UniProt Q13233)
# FGFR3 (human) = FGFR3 (human) (UniProt P22607)
# Sequence of CDK4 CCND3 (human) (P11802 whole entry, looked up): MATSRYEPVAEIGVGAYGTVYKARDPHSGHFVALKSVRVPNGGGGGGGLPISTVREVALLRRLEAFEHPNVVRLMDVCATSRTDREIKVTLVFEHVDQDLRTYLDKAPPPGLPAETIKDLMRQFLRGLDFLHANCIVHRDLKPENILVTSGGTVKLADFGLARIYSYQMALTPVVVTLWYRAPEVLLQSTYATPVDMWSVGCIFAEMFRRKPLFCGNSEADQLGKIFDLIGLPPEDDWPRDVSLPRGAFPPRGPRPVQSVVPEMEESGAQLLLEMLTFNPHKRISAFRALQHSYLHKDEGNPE
# Sequence of CDK4 CCND3 (human) (P30281 whole entry, looked up): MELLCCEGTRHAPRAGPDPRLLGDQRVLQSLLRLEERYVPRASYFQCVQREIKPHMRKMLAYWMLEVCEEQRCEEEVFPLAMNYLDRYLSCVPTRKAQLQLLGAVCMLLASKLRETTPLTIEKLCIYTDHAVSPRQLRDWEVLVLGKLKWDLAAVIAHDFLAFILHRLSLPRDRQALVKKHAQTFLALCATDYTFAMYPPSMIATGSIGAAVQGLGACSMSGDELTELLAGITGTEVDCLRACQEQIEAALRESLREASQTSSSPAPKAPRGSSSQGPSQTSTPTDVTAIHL
Structure (SMILES),"kinase still bound, per cent of control (DSTYK (human))","kinase still bound, per cent of control (STK24 (human))","kinase still bound, per cent of control (MAP3K3 (human))","kinase still bound, per cent of control (ITK (human))","kinase still bound, per cent of control (CDK4 CCND3 (human))","kinase still bound, per cent of control (ACVRL1 (human))","kinase still bound, per cent of control [1]","kinase still bound, per cent of control (MAP3K9 (human))","kinase still bound, per cent of control (SIK2 (human))","kinase still bound, per cent of control (PAK7 (human))","kinase still bound, per cent of control (CRK2 (P.falciparum))","kinase still bound, per cent of control (NEK7 (human))","kinase still bound, per cent of control (MARK2 (human))","kinase still bound, per cent of control (FRK (human))","kinase still bound, per cent of control (RIOK2 (human))","kinase still bound, per cent of control (CAMKK1 (human))","kinase still bound, per cent of control (EPHB1 (human))","kinase still bound, per cent of control (MUSK (human))","kinase still bound, per cent of control (FGFR4 (human))","kinase still bound, per cent of control (NEK6 (human))",other results
COc1cc2ncnc(Nc3cccc(Cl)c3)c2cc1OC,43%,87%,6.6%,100%,93%,100%,46%,86%,67%,90%,100%,88%,74%,29%,43%,74%,67%,100%,98%,100%,"kinase still bound, per cent of control (STK4 (human)): 100%; kinase still bound, per cent of control (MINK1 (human)): 37%; kinase still bound, per cent of control (ACVR1 (human)): 74%; kinase still bound, per cent of control (MAPK13 (human)): 100%; kinase still bound, per cent of control (CDK13 (human)): 91%; kinase still bound, per cent of control (NEK5 (human)): 93%; kinase still bound, per cent of control (LTK (human)): 48%; kinase still bound, per cent of control (PIK3C2G (human)): 43%; kinase still bound, per cent of control (PLK2 (human)): 44%; kinase still bound, per cent of control (MAP3K4 (human)): 83%; kinase still bound, per cent of control (CAMKK2 (human)): 72%; kinase still bound, per cent of control [2]: 55%; kinase still bound, per cent of control (STK17A (human)): 19%; kinase still bound, per cent of control (MATK (human)): 48%; kinase still bound, per cent of control (EPHB4 (human)): 38%; kinase still bound, per cent of control (AAK1 (human)): 18%; kinase still bound, per cent of control (ROCK2 (human)): 39%; kinase still bound, per cent of control (AKT1 (human)): 100%; kinase still bound, per cent of control (MAP3K1 (human)): 16%; kinase still bound, per cent of control (FGFR3 (human)): 99%"
COc1cc2c(Nc3ccc(NC(=O)c4ccccc4)cc3)ncnc2cc1OCCCN1CCOCC1,34%,46%,18%,100%,100%,85%,72%,70%,63%,94%,100%,100%,81%,82%,100%,76%,100%,100%,100%,100%,"kinase still bound, per cent of control (STK4 (human)): 78%; kinase still bound, per cent of control (MINK1 (human)): 33%; kinase still bound, per cent of control (ACVR1 (human)): 100%; kinase still bound, per cent of control (MAPK13 (human)): 40%; kinase still bound, per cent of control (CDK13 (human)): 100%; kinase still bound, per cent of control (NEK5 (human)): 100%; kinase still bound, per cent of control (LTK (human)): 6.3%; kinase still bound, per cent of control (PIK3C2G (human)): 14%; kinase still bound, per cent of control (PLK2 (human)): 100%; kinase still bound, per cent of control (MAP3K4 (human)): 62%; kinase still bound, per cent of control (CAMKK2 (human)): 81%; kinase still bound, per cent of control [2]: 83%; kinase still bound, per cent of control (STK17A (human)): 100%; kinase still bound, per cent of control (MATK (human)): 100%; kinase still bound, per cent of control (EPHB4 (human)): 100%; kinase still bound, per cent of control (AAK1 (human)): 94%; kinase still bound, per cent of control (ROCK2 (human)): 34%; kinase still bound, per cent of control (AKT1 (human)): 100%; kinase still bound, per cent of control (MAP3K1 (human)): 92%; kinase still bound, per cent of control (FGFR3 (human)): 67%"
